Read-outs that look alike come from different tables or passages of the source.
Tests used:
[1] = test system: detrusor muscle (isolated urinary bladder strips); test: Relaxation of rhythmic contraction induced by 15 mmol/l KCl in isolated urinary bladder strips (Test Example 2); parameters: species or system guinea pig (male albino Hartley); details: Cavia porcellus; KCl 15 mmol/l; cumulative, contact time 15-30 minutes; 50% relaxant of maximum response
Description: (§1) The activity of Compounds (I) as therapeutic agents for pollakiuria and urinary incontinence is described below. In the following Test Examples 1 and 2, IC50 value was defined as the concentration at which a test compound produces 50% relaxant of maximum response of detrusor muscle.
(§2) Male albino Hartley guinea pigs (350-550 g) were used as test animals. Each animal was exsanguinated to death under sodium pentobarbital anesthesia. The lower abdominal cavity was opened and its bladder was positioned. The connective tissue and the fat tissue around the bladder were removed, and the bladder was washed. After bilateral pelvic nerves on the surface of the abdominal side of the bladder were dissected, the bladder was taken out on the entrance of ureter. The bladder was washed with a Krebs-Henseleit buffer [composition (mM): NaCl 118, KCl 4.7, MgSO4 1.2, KH2 PO4 1.2, CaCl2 2.5, NaHCO3 25, and D-glucose 11.1], and then put on a gauze patch soaked in the buffer in a Petri dish. The dome and the trigone of the bladder were cut away. The back of the bladder was cut vertically in the middle with scissors, and the bladder was put flat on the gauze patch. The mucosa of the bladder was removed. The back of the bladder was cut vertically to get 6 strips which are ca. 2.0 mm wide and ca. 10 mm long.
(§3) Each strip was tied at one end to plastic rod and placed in a 20 ml organ bath containing a Krebs-Henseleit solution which was maintained at 37° C. and bubbled vigorously with a gas mixture of 5% CO2 and 95% O2. The pH of the solution was adjusted to about 7.4. The other end of the strip was tied via silk thread to a force displacement transducer (NIHON KODEN TB-611T). The transducer was connected to a polygraph (NIHON KODEN AP-621G), and the changes in tension were recorded on a recorder (YOKOGAWA type 3066). The polygraph was graduated by 0.5 g/cm.
Isolated urinary bladder strips were prepared in the same manner as in Test Example 1, and the tension of the preparation was measured. After the tension of the tissue was adjusted to be a steady state at 1 g, 15 mmol/l KCl was applied. After the rhythmic contraction was confirmed to appear by KCl, the tissue was washed. Then, 15 mmol/l KCl was applied again. After the rhythmic contraction induced by KCl became constant, a test compound was applied by the cumulative method (half-logarithmic increment). The contact time at each concentration was 15-30 minutes. The activity of the compound was expressed as the maximum relaxation rate (%) against the tension induced by the agonist.

[2] = test system: detrusor muscle (isolated urinary bladder strips); test: Relaxation of contraction induced by 50 mmol/l KCl in isolated urinary bladder strips (Test Example 1); parameters: species or system guinea pig (male albino Hartley); details: Cavia porcellus, 0.5 h; KCl 50 mmol/l; cumulative, contact time 30 minutes; 50% relaxant of maximum response
Description: as §1, §2, §3
After the tissue was incubated in the buffer for 15 minutes without preloading, tension was added thereto for about one hour. The preloading tension added was 1.5 g and it was relaxed to about 1 g. The strips were allowed to equilibrate until their contractions became constant and tension was adjusted to 1 g. After this equilibrium period, 50 mmol/l KCl (the whole content in the bath) was added, and the tissue was washed 10 minutes later. KCl was added to the tissue at intervals of 30 minutes, followed by washing 10 minutes later, and KCl was applied repeatedly until the developed tension induced by KCl becomes constant. When the tissue was confirmed to contract constantly by the application of KCl and relax to the steady state after washing, 50 mmol/l KCl was applied again. After the tissue reached the steady state and the base line was obtained, a test compound was applied by the cumulative method (half-logarithmic increment). The contact time at each concentration was 30 minutes. The activity of the compound was expressed as the maximum relaxation rate (%) against the tension induced by the agonist.

bladder = test: animal or person; details: Rattus norvegicus, po, read-out: Contraction interval
Description: Male SD strain rats (200-300 g) were used as test animals. Each animal was anesthetized by intraperitoneally administering 50 mg/kg Nembutal. The hair on the abdomen, the thigh, and the back of the neck was shaved, followed by disinfection with 70% ethanol. The left femoral artery of the rat was exposed by incising the thigh for the insertion of a catheter into the femoral artery. A catheter filled with physiological saline containing heparin (1000 units/ml) was introduced approximately 2-3 cm into the artery so that its tip resided in the abdominal artery. The distal end of the catheter was exteriorized at the nape of the neck, sealed, and fixed on the skin tightly. A bladder catheter was implanted according to the method of Yaksh, et al., [Am. J. Physiol., vol.251, R1177-1185 (1986)]. The bladder was exposed through a midline abdominal incision. The bladder dome was given a small incision to make a small hole. A catheter filled with physiological saline was placed into the bladder and secured with a silk ligature. The other end of the catheter was exteriorized at the nape of the neck after being passed under the skin using a trocar. The exposed end of the catheter was sealed and fixed on the skin tightly. The abdominal muscles and skin were sutured, and the test animal was recovered from anesthesia.
The rat was weighed 24-48 hours after the operation. Each rat was placed in a Bollman cage (NATSUME SEISAKUSHO), and the test was done under partial restraint. The arterial catheter was connected to a pressure transducer (NIHON KODEN DX-300) used for the measurement of blood pressure. The bladder catheter was connected to a sylinge pump for physiological saline infusion and to a pressure transducer with PE50 tubing and a three-way stop-cock. Intravesical physiological saline infusion (0.05 ml/minute) was started and continued during the test. The changes of blood pressure, heart rate, and intravesical pressure were recorded with a polygraph (NIHON KODEN). The test animal was allowed to equilibration (for ca. 60-120 minutes) until its micturition pattern became constant. At this point, a basal value of each test parameter was recorded, and the rat was compulsorily given a test compound (in 0.3% carboxymethyl cellulose-physiological saline) at a dose of 1 mg/kg (body weight) by oral administration. […] As a control compound, cromakalim was used. The contraction interval, the systemic blood pressure, and the heart rate were measured for 5 hours after the administration of the compound at one-hour intervals and were expressed as the relative values based on the pre-administration values which were regarded as 100.

Row | Structure (SMILES) | IC50 [1] [µM] | IC50 [2] [µM] | response vs control in vivo at 0.1 mg/kg (bladder; 1 h) [%] | response vs control in vivo at 10 mg/kg (bladder; 1 h) [%] | response vs control in vivo at 0.1 mg/kg (bladder; 2 h) [%] | response vs control in vivo at 10 mg/kg (bladder; 2 h) [%] | response vs control in vivo at 0.1 mg/kg (bladder; 3 h) [%] | response vs control in vivo at 10 mg/kg (bladder; 3 h) [%] | response vs control in vivo at 0.1 mg/kg (bladder; 4 h) [%] | response vs control in vivo at 10 mg/kg (bladder; 4 h) [%] | response vs control in vivo at 0.1 mg/kg (bladder; 5 h) [%] | response vs control in vivo at 10 mg/kg (bladder; 5 h) [%] | response vs control in vivo at 1 mg/kg (bladder; 1 h) [%] | response vs control in vivo at 1 mg/kg (bladder; 2 h) [%] | response vs control in vivo at 1 mg/kg (bladder; 3 h) [%] | response vs control in vivo at 1 mg/kg (bladder; 4 h) [%] | response vs control in vivo at 1 mg/kg (bladder; 5 h) [%] | other results
1 | C[C@](O)(C(=O)Nc1cccc2c1C(=O)c1sccc1CS2(=O)=O)C(F)(F)F [Compound 1-25, (S)-(+)-5,5-Dioxo-9-(3,3,3-trifluoro-2-hydroxy-2-methylpropanoylamino)-4,10-dihydrothieno[3,2-c][1]benzothiepin-10-one] | 2.6 | 10.5 | 108 ± 9 | 133 ± 15 | 140 ± 9 | 128 ± 10 | 140 ± 12 | 149 ± 19 | 148 ± 13 | 180 ± 22 | 163 ± 17 | 183 ± 14 | – | – | – | – | – | response vs control in vivo at 3 mg/kg (bladder; 1 h): 129 ± 8%; response vs control in vivo at 3 mg/kg (bladder; 2 h): 125 ± 14%; response vs control in vivo at 3 mg/kg (bladder; 3 h): 143 ± 22%; response vs control in vivo at 3 mg/kg (bladder; 4 h): 165 ± 22%; response vs control in vivo at 3 mg/kg (bladder; 5 h): 161 ± 13%
2 | C[C@@](O)(C(=O)Nc1cccc2c1C(=O)c1sccc1CS2(=O)=O)C(F)(F)F [Compound 1-26, (R)-(-)-5,5-Dioxo-9-(3,3,3-trifluoro-2-hydroxy-2-methylpropanoylamino)-4,10-dihydrothieno [3,2-c][1]benzothipin-10-one] | 6.6 | 6.3 | 118 ± 8 | – | 137 ± 7 | – | 145 ± 7 | – | 152 ± 8 | – | 168 ± 7 | – | – | – | – | – | – | –
3 | CC(O)(C(=O)Nc1cccc2c1C(=O)c1ccccc1CS2(=O)=O)C(F)(F)F (centres unmarked) [Compound 1-3, 5,5-Dioxo-1-(3,3,3-trifluoro-2-hydroxy-2-methylpropanoylamino)-6,11-dihydrodibenzo[b,e]thiepin-11-one] | 6.3 | > 10 | – | – | – | – | – | – | – | – | – | – | 123 ± 15 | 135 ± 11 | 144 ± 10 | 160 ± 19 | 160 ± 16 | –
4 | O=C1c2ccc(NC(=O)C(F)(F)F)cc2S(=O)(=O)Cc2ccsc21 [Compound 3-5, 5,5-Dioxo-7-trifluoroacetylamino-4,10-dihydrothieno[3,2-c][1]benzothiepin-10-one] | 8.3 | 8.7 | – | – | – | – | – | – | – | – | – | – | 131 ± 12 | 152 ± 4 | 145 ± 18 | 157 ± 13 | 158 ± 4 | –
5 | CC(O)(C(=O)Nc1cccc2c1C(=O)c1sccc1CS2(=O)=O)C(F)(F)F (centres unmarked) [Compound 1-1, 5,5-Dioxo-9-(3,3,3-trifluoro-2-hydroxy-2-methylpropanoylamino)-4,10-dihydrothieno[3,2-c][1]benzothiepin-10-one] | 2.6 | > 10 | – | 124 ± 4 | – | 139 ± 9 | – | 154 ± 14 | – | 176 ± 13 | – | 190 ± 15 | 138 ± 15 | 166 ± 16 | 170 ± 6 | 181 ± 16 | 203 ± 21 | –

From US6211227A, “Tricyclic compounds” (Kyowa Hakko Kogyo Co., Ltd., priority 1997, dated 2001)
